From patent US20190375708A1 (VenatoRx Pharmaceuticals, Inc., priority 2018, published 2019) come the findings set out here.

In general, CC50 refers to the concentration at which the toxic effect on the cells reaches its halfway point. High values mean lower toxicity to the cells, low ones greater toxicity to the cells. The EC50 is the midpoint of the concentration-response curve.

A short description of series [1]: In vitro cytotoxicity assay (MTT cell viability) in HepG2 cells. The settings on record: human. Format: cell-based, human. An outline of the steps:
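HepG2 seeded overnight, then 7-day compound exposure (30 μM–1.0 nM, half-log steps), 37 °C. MTT 3-4 h, DMSO solubilization, A492. % of vehicle → CC50, 4-PL fit.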

The subject of series [2] is HBV replication in HepAD38 cells. The series can be described thus: Anti-HBV replication assay in HepAD38 cells (QPCR of extracellular HBV DNA). Format: cell-based, HBV (genotype D, serotype ayw). The settings on record: Hepatitis B virus, 168 h, 7 days incubation, extracellular HBV DNA by QPCR, read-out: Anti-HBV EC50. In outline: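 Compounds (1 log10 serial dilutions, […]) were left 7 days on tetracycline-free HepAD38 cultures, a HepG2 line with tet-controlled HBV genotype D. EC50 came from 4-parameter regression of percent inhibition versus vehicle, using supernatant HBV DNA copies/mL measured by QPCR.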

In series [1], `Cc1cc(NC(=O)c2c(C)c(C(=O)C(=O)N[C@@H]3CCCNC3=O)n(C)c2C)ccc1F` [Example 673, (R)-N-(4-fluoro-3-methylphenyl)-1,2,4-trimethyl-5-(2-oxo-2-((2-oxopiperidin-3-yl)amino)acetyl)-1H-pyrrole-3-carboxamide] showed a CC50 at 7 days of over 30 µM. Also, the EC50 in series [2] is under 0.05 µM.
The like results for `Cc1cc(NC(=O)c2c(C)c(C(=O)C(=O)Nc3cc(F)[nH]c(=O)c3)n(C)c2C)ccc1F` [Example 674, 5-(2-((6-fluoro-2-oxo-1,2-dihydropyridin-4-yl)amino)-2-oxoacetyl)-N-(4-fluoro-3-methylphenyl)-1,2,4-trimethyl-1H-pyrrole-3-carboxamide] were, in that order, 5 to 30 µM and 0.05 to 0.499 µM.
Molecule `Cc1cc(NC(=O)c2c(C)c(C(=O)C(=O)N[C@H]3CC[C@H](CO)CC3)n(C)c2C)ccc1F` [Example 675, N-(4-fluoro-3-methylphenyl)-5-(2-(((1r,4r)-4-(hydroxymethyl)cyclohexyl)amino)-2-oxoacetyl)-1,2,4-trimethyl-1H-pyrrole-3-carboxamide] showed a CC50 at 7 days in series [1] of over 30 µM. For the same molecule, the EC50 in series [2] is under 0.05 µM.
`Cc1cc(NC(=O)c2c(C)c(C(=O)C(=O)N[C@H]3CC[C@@H](CO)CC3)n(C)c2C)ccc1F` [Example 676, N-(4-fluoro-3-methylphenyl)-5-(2-(((1s,4s)-4-(hydroxymethyl)cyclohexyl)amino)-2-oxoacetyl)-1,2,4-trimethyl-1H-pyrrole-3-carboxamide] returned a CC50 at 7 days in series [1] of over 30 µM. In series [2], the EC50 is under 0.05 µM.
The like results for `Cc1cc(NC(=O)c2c(C)c(C(=O)C(=O)N[C@H]3CC[C@H](C(C)(C)O)CC3)n(C)c2C)ccc1F` [Example 677, N-(4-fluoro-3-methylphenyl)-5-(2-(((1r,4r)-4-(2-hydroxypropan-2-yl)cyclohexyl)amino)-2-oxoacetyl)-1,2,4-trimethyl-1H-pyrrole-3-carboxamide] were, in that order, over 30 µM and under 0.05 µM.
In series [1], `Cc1cc(NC(=O)c2c(C)c(C(=O)C(=O)Nc3ccc4c(c3)COB4O)n(C)c2C)ccc1F` [Example 678, N-(4-fluoro-3-methylphenyl)-5-(2-((1-hydroxy-1,3-dihydrobenzo[c][1,2]oxaborol-5-yl)amino)-2-oxoacetyl)-1,2,4-trimethyl-1H-pyrrole-3-carboxamide] yielded a CC50 at 7 days of 5 to 30 µM. Also, the EC50 in series [2] is under 0.05 µM.
For `Cc1cc(NC(=O)c2c(C)c(C(=O)C(=O)NC3C(=O)NCC3(C)C)n(C)c2C)ccc1F` (stereo not drawn) [Example 679, 5-(2-((4,4-dimethyl-2-oxopyrrolidin-3-yl)amino)-2-oxoacetyl)-N-(4-fluoro-3-methylphenyl)-1,2,4-trimethyl-1H-pyrrole-3-carboxamide] the same measures were over 30 µM and under 0.05 µM.
`Cc1cc(NC(=O)c2c(C)c(C(=O)C(=O)NC3(C)C(=O)NCC34CC4)n(C)c2C)ccc1F` (stereo not drawn) [Example 680, N-(4-fluoro-3-methylphenyl)-1,2,4-trimethyl-5-(2-((7-methyl-6-oxo-5-azaspiro[2.4]heptan-7-yl)amino)-2-oxoacetyl)-1H-pyrrole-3-carboxamide] displayed a CC50 at 7 days in series [1] of over 30 µM. Besides, the concentration giving a half-maximal response (EC50) in series [2] is under 0.05 µM.
As to `Cc1cc(NC(=O)c2c(C)c(C(=O)C(=O)NC3(C(=O)NC(C)(C)CO)CCOCC3)n(C)c2C)ccc1F` [Example 681, N-(4-fluoro-3-methylphenyl)-5-(2-((4-((1-hydroxy-2-methylpropan-2-yl)carbamoyl)tetrahydro-2H-pyran-4-yl)amino)-2-oxoacetyl)-1,2,4-trimethyl-1H-pyrrole-3-carboxamide], the CC50 at 7 days in series [1] is over 30 µM. Besides, the EC50 in series [2] is under 0.05 µM.
For the molecule `CC[C@H](C)NC(=O)C1(NC(=O)C(=O)c2c(C)c(C(=O)Nc3ccc(F)c(C)c3)c(C)n2C)CCOCC1` [Example 682, (S)-5-(2-((4-(sec-butylcarbamoyl)tetrahydro-2H-pyran-4-yl)amino)-2-oxoacetyl)-N-(4-fluoro-3-methylphenyl)-1,2,4-trimethyl-1H-pyrrole-3-carboxamide], in series [1], the CC50 at 7 days was over 30 µM. The EC50 in series [2] is under 0.05 µM.
The like results for `Cc1cc(NC(=O)c2c(C)c(C(=O)C(=O)NC3(C(=O)N[C@]4(C)C[C@H](O)C4)CCOCC3)n(C)c2C)ccc1F` [Example 683, N-(4-fluoro-3-methylphenyl)-5-(2-((4-(((1s,3s)-3-hydroxy-1-methylcyclobutyl)carbamoyl)tetrahydro-2H-pyran-4-yl)amino)-2-oxoacetyl)-1,2,4-trimethyl-1H-pyrrole-3-carboxamide] were, in that order, over 30 µM and under 0.05 µM.
For the molecule `Cc1cc(Cl)cc(NC(=O)c2c(C)c(C(=O)C(=O)N[C@H]3CNC(=O)C3)n(C)c2C)c1` [Example 684, (R)-N-(3-chloro-5-methylphenyl)-1,2,4-trimethyl-5-(2-oxo-2-((5-oxopyrrolidin-3-yl)amino)acetyl)-1H-pyrrole-3-carboxamide], the CC50 at 7 days in series [1] is over 30 µM. In addition, the EC50 in series [2] was under 0.05 µM.
The molecule `Cc1cc(Cl)cc(NC(=O)c2c(C)c(C(=O)C(=O)N[C@H]3CC[C@@H](O)CC3)n(C)c2C)c1` [Example 685, N-(3-chloro-5-methylphenyl)-5-(2-(((1s,4s)-4-hydroxycyclohexyl)amino)-2-oxoacetyl)-1,2,4-trimethyl-1H-pyrrole-3-carboxamide] gave a CC50 at 7 days in series [1] of over 30 µM. In addition, in series [2], the EC50 is under 0.05 µM.
For `Cc1cc(Cl)cc(NC(=O)c2c(C)c(C(=O)C(=O)N[C@H](C)C(F)(F)F)n(C)c2C)c1` [Example 686, (R)-N-(3-chloro-5-methylphenyl)-1,2,4-trimethyl-5-(2-oxo-2-((1,1,1-trifluoropropan-2-yl)amino)acetyl)-1H-pyrrole-3-carboxamide] the same measures were 0.5 to 4.99 µM and under 0.05 µM.
For `Cc1cc(Cl)cc(NC(=O)c2c(C)c(C(=O)C(=O)N[C@]3(C)CC[C@@H](O)CC3)n(C)c2C)c1` [Example 687, N-(3-chloro-5-methylphenyl)-5-(2-(((1r,4r)-4-hydroxy-1-metthylcyclohexyl)amino)-2-oxoacetyl)-1,2,4-trimethyl-1H-pyrrole-3-carboxamide] the same measures were 5 to 30 µM and under 0.05 µM.
With `Cc1cc(Cl)cc(NC(=O)c2c(C)c(C(=O)C(=O)N[C@@H]3CCC[C@@H](O)C3)n(C)c2C)c1` [Example 688, N-(3-chloro-5-methylphenyl)-5-(2-(((1R,3R)-3-hydroxycyclohexyl)amino)-2-oxoacetyl)-1,2,4-trimethyl-1H-pyrrole-3-carboxamide], the CC50 at 7 days in series [1] was over 30 µM. Also, the concentration for a half-maximal effect (EC50) in series [2] was under 0.05 µM.
Molecule `Cc1c(C(=O)Nc2cccc(Cl)c2)c(C)n(C)c1C(=O)C(=O)N[C@@H]1CCC[C@@H](O)C1` [Example 689, N-(3-chlorophenyl)-5-(2-(((1R,3R)-3-hydroxycyclohexyl)amino)-2-oxoacetyl)-1,2,4-trimethyl-1H-pyrrole-3-carboxamide] registered a CC50 at 7 days in series [1] of over 30 µM. Moreover, the EC50 in series [2] was under 0.05 µM.
`Cc1c(C(=O)Nc2cccc(C(F)F)c2)c(C)n(C)c1C(=O)C(=O)N[C@H]1CC[C@@H](O)CC1` [Example 690, N-(3-(difluoromethyl)phenyl)-5-(2-(((1s,4s)-4-hydroxycylcohexyl)amino)-2-oxoacetyl)-1,2,4-trimethyl-1H-pyrrole-3-carboxamide] gave a CC50 at 7 days in series [1] of over 30 µM. In addition, the EC50 in series [2] was under 0.05 µM.
